Entries after “also recorded” stand apart in the source; their conditions may differ. Where a SMILES comes first, the peptide text is derived from it.

This is an account of results in article PMC4534154 (Food Science & Nutrition, 2015).

The target in series [1] is T1, trypsin (Bos taurus, UniProt P00760).
T1 construct: purchased Sigma; host or cells: bovine pancreas (tissue-derived)
T1 sequence (P00760 24-246): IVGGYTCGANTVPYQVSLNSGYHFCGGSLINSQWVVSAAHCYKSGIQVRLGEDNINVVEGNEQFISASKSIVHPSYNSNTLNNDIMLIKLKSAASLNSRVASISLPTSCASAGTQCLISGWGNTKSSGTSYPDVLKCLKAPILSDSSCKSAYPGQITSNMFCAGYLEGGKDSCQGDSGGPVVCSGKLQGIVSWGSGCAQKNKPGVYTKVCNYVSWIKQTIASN
Description: Simulated intestinal fluid (SIF, trypsin only) digestion of Ara h 1 peptides. It counts as in vitro ADME, bovine. The following applies: SIF containing only trypsin, 200 μg peptide in 1 mL, 37°C, samples at 1, 2, 4, 16 h, LC-MS peak integration; for peptide cleaved at the K287 site in SIF (formation of 2227.05 amu ion as percentage of sum of parental and fragment ions): Fig. 2C; for SIF (trypsin) cleavage, formation of 1073.55 amu cleavage ion, in words: Fig. 2D. The source says:
Pepsin from porcine gastric mucosa and trypsin from bovine pancreas were purchased from Sigma. Sequencing grade-modified trypsin was purchased from Promega. Water was obtained using a Synergy Ultrapure water system (Millipore). Modified and unmodified Ara h 1 peptides were synthesized (at least 95% pure) and purchased from New England Peptide. Serum samples from five peanut allergic patients were purchased from PlasmaLab International (Everett, WA).
Simulated gastric fluid (SGF) containing pepsin and simulated intestinal fluid (SIF) containing trypsin were used as described previously (Mattison et al. [2014b]). Synthetic peptides were resuspended in water just prior to use at a concentration of 1 mg/mL. Peptides (200 μg) were digested with SGF or SIF in 1 mL reaction volume for 1, 2, 4, or 16 h at 37°C. Samples (100 μL) were removed at the indicated time points, 5% formic acid was added, and samples were frozen at −80°C prior to analysis by mass spectrometry.
Analysis of trypsin/pepsin digestions: trypsin or pepsin digested Ara h 1 peptides were analyzed via liquid chromatography with tandem mass spectrometry (LC/MS/MS), using an Agilent 1200 LC system, an Agilent Chip Cube interface, and an Agilent 6520 Q-TOF tandem mass spectrometer (Agilent Technologies, Santa Clara, CA) as described in Mattison et al. (Mattison et al. [2014a]). One microliter sample aliquots were transferred to an enrichment column via capillary pump operating at a flow of 4 μL/min. The Nano pump was operated at a flow rate of 600 nL/min. An initial gradient (Solvent A-100% H2O, 0.1% Formic Acid; Solvent B- 90% ACN, 10% H2O and 0.1% Formic Acid) of 97% A was changed to 10% […] at 2 min, 70% at 15 min, 100% at 20 min, and back to 97% at 25 min. A postrun time of 5 min was employed for column equilibration. An initial MS scan was performed from m/z 300 to 1600 and up to six multiply charged ions were selected for MS/MS analysis. The raw MS/MS data files were extracted, sequenced, and searched against a custom database containing the Ara h 1 sequence using Spectrum Mill software (Agilent Technologies, Santa Clara, CA). For relative quantification, samples were run in MS-only mode and chromatographic peak areas were integrated into selected ions representative of the peptide cleavage products, resulting from the protease digest.
We evaluated the digestion of the modified and unmodified peptides using SIF containing only trypsin to mimic intestinal digestion conditions. […] To quantify the results, we integrated the relative peak areas of the 2227.05 and 1073.55 amu ions and undigested parental ions, and plotted the generation of the peptide cleavage products as a percentage of the sum of the parental and fragment ion values over time (Fig.2C and D). […]

The test system of series [2] is trypsin from bovine pancreas. Description: simulated intestinal fluid (SIF) containing trypsin. The following applies: 37°C, up to 16 h.
In series [3] the test system is Pepsin from porcine gastric mucosa. Description: Simulated gastric fluid (SGF) containing pepsin. The following applies: 37°C, up to 16 h.

For “VAKISMPVNTPGQFEDFFPASSR [VAK-CML, synthetic Ara h 1 peptide, residues 285–307, with CML modification at lysine 287 (K287)]”, the “peptide cleaved at the K287 site in SIF (formation of 2227.05 amu ion as percentage of sum of parental and fragment ions)” value in series [1] (listed as CML-modified VAK) is listed as “less than 5%”. Take VAK-CML-ISMPVNTPGQFEDFFPASSR: the not cleaved entry in series [2] is “less than 5% of the CML-modified VAK peptide was cleaved (16 h)”. In series [3], the fragment found entry was “VAKISM, major; also recorded: VAKISMPVNTPGQF, major”. Consider IFLAGDK-CML-DNVIDQIEK, for which the not cleaved entry in series [2] was “the CML modification prevented trypsin cleavage of the peptide”. The fragment found entry in series [3] is reported as “IFLAGDKDNVIDQ, major; also recorded: AGDKDNVIDQ, major; also recorded: IFLAGDKD, major”.

In the case of IFLAGDKDNVIDQIEK, in series [2], the cleaved bond result is reported as “K547-D548”. Further, the fragment found entry in series [3] is reported as “IFLAGDKDNVIDQ, major; also recorded: AGDKDNVIDQ, major; also recorded: IFLAGDKD, major”.

Turning to `CC[C@H](C)[C@H](N)C(=O)N[C@@H](Cc1ccccc1)C(=O)N[C@@H](CC(C)C)C(=O)N[C@@H](C)C(=O)NCC(=O)N[C@@H](CC(=O)O)C(=O)N[C@@H](CCCCNCC(=O)O)C(=O)N[C@@H](CC(=O)O)C(=O)N[C@@H](CC(N)=O)C(=O)N[C@H](C(=O)N[C@H](C(=O)N[C@@H](CC(=O)O)C(=O)N[C@@H](CCC(N)=O)C(=O)N[C@H](C(=O)N[C@@H](CCC(=O)O)C(=O)N[C@@H](CCCCN)C(=O)O)[C@@H](C)CC)[C@@H](C)CC)C(C)C` [IFLAG-CML], the “SIF (trypsin) cleavage, formation of 1073.55 amu cleavage ion, in words” value in series [1] is “prevented trypsin cleavage”. On to “VAKISMPVNTPGQFEDFFPASSR [synthetic Ara h 1 peptide, residues 285–307, unmodified]”, for which, in series [1], the “peptide cleaved at the K287 site in SIF (formation of 2227.05 amu ion as percentage of sum of parental and fragment ions)” value was “about 50%”. In the case of `CC[C@H](C)[C@H](N)C(=O)N[C@@H](Cc1ccccc1)C(=O)N[C@@H](CC(C)C)C(=O)N[C@@H](C)C(=O)NCC(=O)N[C@@H](CC(=O)O)C(=O)N[C@@H](CCCCN)C(=O)N[C@@H](CC(=O)O)C(=O)N[C@@H](CC(N)=O)C(=O)N[C@H](C(=O)N[C@H](C(=O)N[C@@H](CC(=O)O)C(=O)N[C@@H](CCC(N)=O)C(=O)N[C@H](C(=O)N[C@@H](CCC(=O)O)C(=O)N[C@@H](CCCCN)C(=O)O)[C@@H](C)CC)[C@@H](C)CC)C(C)C` [IFLAG] (H-IFLAGDKDNVIDQIEK-OH), the “SIF (trypsin) cleavage, formation of 1073.55 amu cleavage ion, in words” value in series [1] was “very limited SIF proteolysis”. For the compound VAKISMPVNTPGQFEDFFPASSR, in series [2], the cleaved bond result is “K287-I288”. In series [3], the fragment found result is “VAKISMPVNTPGQF, major; also recorded: VAKISM, major”.
